Assay results reported in US11680060B2, “Bicycloheptane pyrrolidine orexin receptor agonists” (Merck Sharp & Dohme LLC, priority 2020, dated 2023).

Molecular target: human OX2R (Homo sapiens (Human), UniProt O43614)
Experiment: IPOne (IP-1) assay in CHO cells expressing human OX2R
Assay type: cell-based
Conditions: for Emax: CHO, read-out: Emax (%); for IC50: CHO cells expressing human OX2R, IP-One detection, 2 hours incubation, EC50 = inflection point of four parameter logistic fit, read-out: hOX2R_IP_IC50
Procedure, shortened: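 CHO cells stably expressing human OX2R were stimulated with compound (10-point ½-log dilutions) for 2 h at 37 °C. IP-1 accumulation was read by HTRF (IP-One, 665/620 nm). EC50 from a four-parameter fit; % effect relative to 1 μM reference agonist control.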

[1] = percentage of mean max effect of a reference compound at 1 uM (100% activity by comparison to Orexin A), human OX2R

human OX2R, sequence (O43614 whole entry): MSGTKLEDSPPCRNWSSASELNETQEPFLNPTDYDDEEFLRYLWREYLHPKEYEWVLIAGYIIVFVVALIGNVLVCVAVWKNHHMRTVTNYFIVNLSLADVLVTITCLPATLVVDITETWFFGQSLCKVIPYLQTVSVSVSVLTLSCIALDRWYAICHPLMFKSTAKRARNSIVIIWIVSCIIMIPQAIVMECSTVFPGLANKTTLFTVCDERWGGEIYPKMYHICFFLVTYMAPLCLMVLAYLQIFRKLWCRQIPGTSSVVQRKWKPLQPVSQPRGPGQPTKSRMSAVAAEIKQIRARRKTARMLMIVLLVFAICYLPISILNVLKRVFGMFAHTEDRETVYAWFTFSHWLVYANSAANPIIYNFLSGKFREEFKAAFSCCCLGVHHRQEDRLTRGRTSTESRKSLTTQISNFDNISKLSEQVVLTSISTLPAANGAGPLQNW

Row | Emax [1] [%] | Emax (%) [1] [%] | IC50 [nM] | Compound
1 | 99.8 | – | 238 | COC(=O)N1CC[C@H](NS(C)(=O)=O)[C@@H]1CO[C@H]1CC[C@@]2(c3ncccn3)C[C@H]2C1 (single isomer, unassigned) [Example 177]
2 | 101 | – | 4.3 | CC(C)OC(=O)N1[C@H](C)C[C@H](NS(=O)(=O)CF)[C@@H]1CO[C@H]1CC[C@@]2(c3ncc(Br)cn3)C[C@H]2C1 (single isomer, unassigned) [Example 103]
3 | 102 | – | 1.6 | CC(C)OC(=O)N1[C@H](C)C[C@H](NS(=O)(=O)N(C)C)[C@@H]1CO[C@@H]1CC[C@]2(c3ncc(F)cn3)C[C@@H]2C1 (single isomer, unassigned) [Example 160]
4 | 102 | – | – | COC(=O)N1[C@H](C(F)F)C[C@H](NS(=O)(=O)C2CC2)[C@@H]1COC1CCC2(c3ncc(F)cn3)CC2C1 (stereo partly drawn) [Example 116, methyl (2R,3S,5S)-3-(cyclopropanesulfonamido)-5-(difluoromethyl)-2-(((6-(5-fluoropyrimidin-2-yl)bicyclo[4.1.0]heptan-3-yl)oxy)methyl)pyrrolidine-1-carboxylate]
5 | 105 | – | – | CC(C)OC(=O)N1[C@H](C)C[C@H](NS(=O)(=O)C(F)F)[C@@H]1COC1CCC2(c3ncc(F)cn3)CC2C1 (stereo partly drawn) [Example 109, isopropyl (2R,3S,5R)-3-((difluoromethyl)sulfonamido)-2-(((6-(5-fluoropyrimidin-2-yl)bicyclo[4.1.0]heptan-3-yl)oxy)methyl)-5-methylpyrrolidine-1-carboxylate]
6 | 101 | – | – | CC(C)OC(=O)N1[C@H](C)C[C@H](NS(C)(=O)=O)[C@@H]1COC1CCC2(c3ncc(Cl)cn3)CC2C1 (stereo partly drawn) [Example 154, isopropyl (2R,3S,5R)-2-(((6-(5-chloropyrimidin-2-yl)bicyclo[4.1.0]heptan-3-yl)oxy)methyl)-5-methyl-3-(methylsulfonamido)pyrrolidine-1-carboxylate]
7 | 100 | – | 0.99 | CCS(=O)(=O)N[C@H]1C[C@@H](C(F)F)N(C(=O)OC(C)C)[C@H]1CO[C@H]1CC[C@@]2(c3ncc(F)cn3)C[C@H]2C1 (single isomer, unassigned) [Example 118]

Second part, the molecule before the results:

Row | Compound | Emax [1] [%] | Emax (%) [1] [%] | IC50 [nM]
8 | C[C@@H]1C[C@H](NS(C)(=O)=O)[C@H](CO[C@H]2CC[C@@]3(c4ncc(F)cn4)C[C@H]3C2)N1C(=O)OCCC(F)F [Example 52, 3,3-difluoropropyl (2R,3S,5R)-2-((((1S,3S,6R)-6-(5-fluoropyrimidin-2-yl)bicyclo[4.1.0]heptan-3-yl)oxy)methyl)-5-methyl-3-(methylsulfonamido)pyrrolidine-1-carboxylate] | 102 | – | –
9 | CC(C)OC(=O)N1[C@H](C)C[C@H](NS(=O)(=O)N(C)C)[C@@H]1COC1CCC2(c3ncccn3)CC2C1 (stereo partly drawn) [Example 8, isopropyl (2R,3S,5R)-3-((N,N-dimethylsulfamoyl)amino)-5-methyl-2-(((6-(pyrimidin-2-yl)bicyclo[4.1.0]heptan-3-yl)oxy)methyl)pyrrolidine-1-carboxylate] | – | 95.4 | –
10 | C[C@@H]1C[C@H](NS(C)(=O)=O)[C@H](CO[C@H]2CC[C@@]3(c4ncc(F)cn4)C[C@H]3C2)N1C(=O)O[C@H]1COC[C@@H]1F [Example 56, (3S,4S)-4-fluorotetrahydrofuran-3-yl (2R,3S,5R)-2-((((1S,3S,6R)-6-(5-fluoropyrimidin-2-yl)bicyclo[4.1.0]heptan-3-yl)oxy)methyl)-5-methyl-3-(methylsulfonamido)pyrrolidine-1-carboxylate] | 104 | – | –
11 | COC(=O)N1[C@H](C)C[C@H](NS(C)(=O)=O)[C@@H]1COC1CCC2(c3ncc(F)c(C)n3)CC2C1 (stereo partly drawn) [Example 77, methyl (2R,3S,5R)-2-(((6-(5-fluoro-4-methylpyrimidin-2-yl)bicyclo[4.1.0]heptan-3-yl)oxy)methyl)-5-methyl-3-(methylsulfonamido)pyrrolidine-1-carboxylate] | 74.5 | – | –
12 | C[C@@H]1C[C@H](NS(C)(=O)=O)[C@H](CO[C@H]2CC[C@@]3(c4ncc(F)cn4)C[C@H]3C2)N1C(=O)OCC1(F)CC1 [Example 61, (1-fluorocyclopropyl)methyl (2R,3S,5R)-2-((((1S,3S,6R)-6-(5-fluoropyrimidin-2-yl)bicyclo[4.1.0]heptan-3-yl)oxy)methyl)-5-methyl-3-(methylsulfonamido)pyrrolidine-1-carboxylate] | 104 | – | –
13 | CCS(=O)(=O)N[C@H]1C[C@@H](C)N(C(=O)OC)[C@H]1CO[C@H]1CC[C@@]2(c3ncc(F)cn3)C[C@H]2C1 [Example 36, methyl (2R,3S,5R)-3-(ethylsulfonamido)-2-((((1S,3S,6R)-6-(5-fluoropyrimidin-2-yl)bicyclo[4.1.0]heptan-3-yl)oxy)methyl)-5-methylpyrrolidine-1-carboxylate] | 102 | – | –
